Results taken from patent US20140050778A1, “NUCLEIC ACID BINDING COMPOUNDS, METHODS OF MAKING, AND USE THEREOF” (UNIVERSITY OF ROCHESTER, priority 2010, published 2014).
Entries after “also recorded” stand apart in the source; their conditions may differ.

Key:
[1] = target: (CUG)10 RNA (SEQ ID NO: 3); assay: SPR binding to immobilized biotinylated RNA; conditions: SPR, (CUG)10
Method: SPR binding measurements were performed on a Biacore-X instrument (Biacore, Inc., Uppsala, Sweden) with two flow channels (FC1 and FC2). 5′-Biotinylated-RNA sequences, with a C6 linker separating the biotin label from the RNA (Integrated DNA Technologies Inc.) were immobilized on streptavidin (Rockland Immunochemicals) functionalized carboxylmethyl dextran coated sensor chips (CM5, G.E. Healthcare) using EDC/NHS (Advanced ChemTech) coupling chemistry. Filtered (0.2μ), degassed and autoclaved HBS-N buffer (0.01M Hepes, pH=7.4, 0.15 M NaCl) was employed as sample and as running buffer for all SPR experiments. A typical protocol for an experiment is as follows: A CM5 sensor chip was allowed to equilibrate to room temperature and then docked into the instrument. Following priming with running buffer, FC1 and FC2 were conditioned by manual injection of 20 μL aqueous NaOH (50 mM) at a flow rate of 30 μL/min. This was repeated 3 times followed by a wash command. Next, the carboxyl groups on the sensor chip surface in both flow cells were activated separately by injecting 60 μL of freshly prepared 1:1 mixture of EDC (0.4 M) and NHS (0.1 M) at a 5 μL/min flow rate followed by a wash. […] After washing, the surface was deactivated with 60 μL injection of ethanolamine (1M, pH=8.5) at 5 μL/min. The flow cells were primed, and the streptavidin surface in FC1 alone was blocked with 30 μL of biotin (20 μM in HBS-N) at 5 μL/min. The RNA (200 nM in running buffer, HBS-N) to be immobilized was unfolded by heating above its predicted melting temperature in a heated block for 2 min and then allowed to refold by cooling gradually to room temperature. The RNA was then immobilized in FC2 alone to response units ranging from 200-1000 RU using a 5 μL/min flow rate. Representative sensorgrams for the immobilization procedure is shown in FIGS. 2A-B. Two 20 μL aliquots of NaCl (0.5 M) were injected at a 30 μL/min flow rate to remove non-specifically bound RNA. The level of RNA immobilized was noted when the baseline was stable, usually after repeated buffer injection followed by a “prime” command. Binding measurements were performed by flowing various concentrations of the compounds to be analyzed over the immobilized RNA and recording the reference-subtracted (FC2−FC1) sensorgrams. For kinetic analysis, at least five sensorgrams corresponding to different concentrations of compound (usually ranging from 0.05-1 μM in HBS-N) were obtained using flow rates of either 60 μL/min or 30 μL/min. The experimental sensorgrams were globally fitted to a 1:1 binding equation (Biaevaluation software) to obtain association rates (ka) and dissociation rates ([…]) as well as equilibrium binding constants (KD). To measure the binding stoichiometry (n), the relations in equations (1-3) below were used: […]
where RUmax is the maximum resonance response unit at saturation, RURNA is the amount RU of RNA immobilized, n is the stoichiometry, MWcompound and MWRNA are molecular weights of compound and RNA respectively, and RUeq represents the resonance response at steady-state (equilibrium). The response units at equilibrium were subjected to Scatchard binding plots of (r/Cfree vs. r).
This technique allows the association and dissociation rates (ka and kd), equilibrium binding constants (KD), and the binding stoichiometry (n) to be measured in a label-free format (Liu and Wilson, “Quantitative Analysis of Small Molecule-nucleic Acid Interactions with a Biosensor Surface and Surface Plasmon Resonance Detection,” Methods Mol. Biol. 613:1-23 (2010), which is hereby incorporated by reference in its entirety).

mouse C2C12 myoblasts = assay: Cell permeability by fluorescence microscopy; format: cell-based; conditions: 12 h, 125 μM, intrinsic fluorescence
Method: For cell permeability studies, human fibroblasts or mouse myoblasts grown to 80% confluence were exposed to compounds for 12 hours in a 96 well tissue culture plate. After removal of the culture media (DMEM, with 10% FBS, 1% pen-strep (GIBCO)) the cells were washed twice with PBS to remove excess compounds. Cells were then imaged while in buffer under a fluorescence microscope (Olympus IX70) in the 96-well plate using a 460 nm emission filter.

human fibroblasts = assay: MTT toxicity assay; format: cell-based; conditions: single substance, concentrations up to 500 μM
Method: (§1) For toxicity studies, mouse myoblasts or human fibroblasts were plated in a 96-well tissue culture plate in DMEM (10% fetal bovine serum, 100 units/ml penicillin, […]) and allowed to grow to approximately 80% confluence at 37° C. under CO2. Varying compound concentrations (up to 1 mM) were incubated with cells (48 hours, 37° C.). Media was then removed, and 3-(4,5-dimethylthiazol-2-yl)-2,5-diphenyltetrazolium bromide (“MTT”) in media was added to each well and incubated at 37° C. for 4 h. After removal of the MTT media, isopropanol (100 pp was added, and absorbance was measured at 600 nm on a Modulus microplate reader (Turner Biosystems).
SPR and fluorescence titration experiments, performed using the protocol described in Examples 3 and 4 above, except using as the target a highly conserved RNA sequence responsible for regulating the production of the Gag-Pol polyprotein via a −1 ribosomal frameshift, which occurs along a “slippery sequence” in gag-pol mRNA (SEQ ID NO: 7). This “frameshift stimulatory sequence” (or “HIV-1 FSS”) consists of an upper stemloop and a lower stem, separated by a purine bulge in the most common types of HIV (FIG. 19). For the fluorescent titration experiments, the upper stemloop of SEQ ID NO: 7 was employed. Cell uptake and toxicity studies were carried out using human fibroblasts according to Example 5 above.

pseudotyped HIV = assay: Pseudotyped HIV assay (HEK293T producer cells, p24 ELISA, HeLa LTR-luciferase); format: cell-based, HIV-1; conditions: 500 nM, single dose experiments
Method: Initial experiments were conducted to ascertain if compound 14 (designated as compound 5-5 Z in PCT Publ. […]. After transfection, cells were incubated with compound for 20 hours. Viruses produced in untreated and treated cells were recovered from the media and viral titers were assessed using a p24 ELISA assay as described previously by Miller et al., “The Dimerization Domain of HIV-1 Viral Infectivity Factor Vif is Required to Block Virion Incorporation of APOBEC3G,” Retrovirology 4:81 (2007), which is hereby incorporated by reference in its entirety. The same number of virus from control and compound-treated cells were used to infect a HeLa cell line expressing luciferase under the control of an LTR promoter (Platt et al., “Effects of CCRS and CD4 Cell Surface Concentrations on Infections by Macrophagetropic Isolates of Human Immunodeficiency Virus Type 1,” J. Virol. 72:2855-2864 (1998), which is hereby incorporated by reference in its entirety). Viral infectivity was quantified in microtiter well format based on the luciferase signals. […]
This experiment was repeated using a dose-response study to assess the efficacy of compound 18. […] Actin concentration (as measured by Western blot) was used to correct viral titers for any subtle variation in cell number, and to confirm that the observed effect is specific to virus production and not to off-target effects. […]

[2] = tested on: human fibroblasts / mouse myoblasts; assay: MTT toxicity assay, comparison drugs (FIGS. 13A-B); format: cell-based
Method: as §1

Compound	apparent KD [1]	cell membrane penetration / localization (mouse C2C12 myoblasts)	toxicity (MTT) (human fibroblasts)	decrease in viral titer relative to null control (pseudotyped HIV)	toxicity (MTT) [2]
CCc1nc2cc3ccccc3cc2cc1C(=O)O [Compound 2, 2-ethylbenzo[g]quinoline-3-carboxylic acid]	complete lack of binding	only a modest ability to enter cells; also recorded: not internalized by cells	no toxicity	no effect	
COc1cccc2c1C(=O)c1c(O)c3c(c(O)c1C2=O)C[C@@](O)(C(C)=O)C[C@@H]3O[C@H]1C[C@H](N)[C@H](O)[C@H](C)O1 [daunorubicin]					significant toxicity at all concentrations tested
